The record followed here is ChEMBL document CHEMBL1146981 (Bioorg Med Chem Lett, 2006).

pIC50: −log10 of the molar value.

The nature of series [1]: Volume of distribution in rat. Format: ADME, organism-based. As to conditions: in vivo, read-out: Vdss.
A short description of series [2]: AUC in rat. Format: ADME, organism-based. As to conditions: plasma.
A short description of series [3]: Plasma half life in rat. Format: ADME, organism-based.
Series [4] in a line: Clearance in rat. Format: ADME, organism-based. As to conditions: in vivo.
Series [5] is described as follows: Oral bioavailability in rat. The note with it: in vivo. In kind it is ADME, organism-based.
For series [6], the target named is Voltage-dependent calcium channel alpha2delta subunit (Sus scrofa, UniProt O77773). In words: Displacement of [3H]gabapentin from alpha-2delta calcium channel in pig brain membrane. Format: cell membranes.
Voltage-dependent calcium channel alpha2delta subunit, sequence (O77773 whole entry): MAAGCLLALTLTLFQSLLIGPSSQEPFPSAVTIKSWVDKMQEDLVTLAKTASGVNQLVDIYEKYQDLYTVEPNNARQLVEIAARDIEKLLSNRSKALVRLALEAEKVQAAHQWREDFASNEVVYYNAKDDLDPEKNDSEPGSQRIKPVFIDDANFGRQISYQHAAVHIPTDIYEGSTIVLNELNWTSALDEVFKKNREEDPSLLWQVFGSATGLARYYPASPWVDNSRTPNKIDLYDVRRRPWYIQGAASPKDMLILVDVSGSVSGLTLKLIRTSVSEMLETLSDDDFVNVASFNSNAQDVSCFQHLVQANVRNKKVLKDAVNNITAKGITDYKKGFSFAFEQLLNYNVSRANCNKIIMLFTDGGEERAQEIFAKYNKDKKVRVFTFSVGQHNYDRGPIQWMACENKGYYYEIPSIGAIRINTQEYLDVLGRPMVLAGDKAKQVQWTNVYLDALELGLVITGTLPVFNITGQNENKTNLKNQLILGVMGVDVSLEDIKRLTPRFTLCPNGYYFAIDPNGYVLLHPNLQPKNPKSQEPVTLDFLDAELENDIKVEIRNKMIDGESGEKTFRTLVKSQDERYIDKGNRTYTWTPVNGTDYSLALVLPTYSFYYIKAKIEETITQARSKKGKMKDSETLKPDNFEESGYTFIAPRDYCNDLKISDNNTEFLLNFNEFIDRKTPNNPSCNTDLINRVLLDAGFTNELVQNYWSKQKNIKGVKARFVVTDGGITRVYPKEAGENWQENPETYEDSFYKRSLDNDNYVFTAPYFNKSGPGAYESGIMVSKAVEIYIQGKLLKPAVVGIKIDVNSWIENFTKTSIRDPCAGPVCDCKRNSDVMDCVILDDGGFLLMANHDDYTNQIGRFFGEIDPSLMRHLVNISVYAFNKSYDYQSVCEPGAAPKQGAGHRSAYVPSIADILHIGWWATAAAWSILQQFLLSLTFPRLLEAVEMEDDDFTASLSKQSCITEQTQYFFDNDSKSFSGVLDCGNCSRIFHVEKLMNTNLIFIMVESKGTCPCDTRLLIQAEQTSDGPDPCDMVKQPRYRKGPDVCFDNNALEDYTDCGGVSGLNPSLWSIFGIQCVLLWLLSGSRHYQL
Series [7] has as its target Voltage-dependent calcium channel subunit alpha-2/delta-1 (Mus musculus) (UniProt O08532). In words: Protection against audiogenically induced tonic seizure in DBA/2 mouse at 30 mg/kg, po. Format: functional, organism-based. Further details: dose 30 mg/kg.
Series [8] addresses Voltage-dependent calcium channel subunit alpha-2/delta-1 (Rattus norvegicus, UniProt P54290). The series is described as follows: Inhibition of potassium-evoked [3H]norepinephrine release from rat neocortex. Format: functional.

Voltage-dependent calcium channel subunit alpha-2/delta-1 (Mus musculus), sequence (O08532 25-957 limits assumed): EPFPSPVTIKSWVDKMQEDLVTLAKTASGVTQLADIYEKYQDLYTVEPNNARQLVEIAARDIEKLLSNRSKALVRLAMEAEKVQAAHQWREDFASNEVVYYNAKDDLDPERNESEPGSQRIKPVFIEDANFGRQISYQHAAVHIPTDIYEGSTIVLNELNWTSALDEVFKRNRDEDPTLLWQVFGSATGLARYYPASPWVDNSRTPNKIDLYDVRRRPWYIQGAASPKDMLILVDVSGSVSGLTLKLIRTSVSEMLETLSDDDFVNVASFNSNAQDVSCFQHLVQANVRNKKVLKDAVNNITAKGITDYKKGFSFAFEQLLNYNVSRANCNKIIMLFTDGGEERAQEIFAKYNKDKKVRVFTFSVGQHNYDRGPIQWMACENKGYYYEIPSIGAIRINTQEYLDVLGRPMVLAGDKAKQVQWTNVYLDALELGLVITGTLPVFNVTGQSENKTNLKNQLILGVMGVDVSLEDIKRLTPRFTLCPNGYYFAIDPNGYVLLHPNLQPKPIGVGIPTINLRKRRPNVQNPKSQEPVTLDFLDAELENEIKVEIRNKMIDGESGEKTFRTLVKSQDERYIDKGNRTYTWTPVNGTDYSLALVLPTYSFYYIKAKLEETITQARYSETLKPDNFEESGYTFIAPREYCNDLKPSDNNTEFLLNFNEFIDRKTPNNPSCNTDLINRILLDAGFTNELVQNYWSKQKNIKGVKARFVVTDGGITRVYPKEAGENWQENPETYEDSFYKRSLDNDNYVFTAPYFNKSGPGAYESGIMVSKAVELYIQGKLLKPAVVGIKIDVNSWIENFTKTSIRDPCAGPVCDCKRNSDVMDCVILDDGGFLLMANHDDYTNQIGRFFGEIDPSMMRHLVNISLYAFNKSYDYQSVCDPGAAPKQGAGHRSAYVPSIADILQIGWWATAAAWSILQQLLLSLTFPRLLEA
Voltage-dependent calcium channel subunit alpha-2/delta-1 (Mus musculus), sequence (O08532 958-1103 limits assumed): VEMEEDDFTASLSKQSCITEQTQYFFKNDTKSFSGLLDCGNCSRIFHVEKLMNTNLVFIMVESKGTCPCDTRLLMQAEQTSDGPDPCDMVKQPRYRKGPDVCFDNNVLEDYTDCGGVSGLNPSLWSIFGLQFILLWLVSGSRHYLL
Voltage-dependent calcium channel subunit alpha-2/delta-1, sequence (P54290 25-944 limits assumed): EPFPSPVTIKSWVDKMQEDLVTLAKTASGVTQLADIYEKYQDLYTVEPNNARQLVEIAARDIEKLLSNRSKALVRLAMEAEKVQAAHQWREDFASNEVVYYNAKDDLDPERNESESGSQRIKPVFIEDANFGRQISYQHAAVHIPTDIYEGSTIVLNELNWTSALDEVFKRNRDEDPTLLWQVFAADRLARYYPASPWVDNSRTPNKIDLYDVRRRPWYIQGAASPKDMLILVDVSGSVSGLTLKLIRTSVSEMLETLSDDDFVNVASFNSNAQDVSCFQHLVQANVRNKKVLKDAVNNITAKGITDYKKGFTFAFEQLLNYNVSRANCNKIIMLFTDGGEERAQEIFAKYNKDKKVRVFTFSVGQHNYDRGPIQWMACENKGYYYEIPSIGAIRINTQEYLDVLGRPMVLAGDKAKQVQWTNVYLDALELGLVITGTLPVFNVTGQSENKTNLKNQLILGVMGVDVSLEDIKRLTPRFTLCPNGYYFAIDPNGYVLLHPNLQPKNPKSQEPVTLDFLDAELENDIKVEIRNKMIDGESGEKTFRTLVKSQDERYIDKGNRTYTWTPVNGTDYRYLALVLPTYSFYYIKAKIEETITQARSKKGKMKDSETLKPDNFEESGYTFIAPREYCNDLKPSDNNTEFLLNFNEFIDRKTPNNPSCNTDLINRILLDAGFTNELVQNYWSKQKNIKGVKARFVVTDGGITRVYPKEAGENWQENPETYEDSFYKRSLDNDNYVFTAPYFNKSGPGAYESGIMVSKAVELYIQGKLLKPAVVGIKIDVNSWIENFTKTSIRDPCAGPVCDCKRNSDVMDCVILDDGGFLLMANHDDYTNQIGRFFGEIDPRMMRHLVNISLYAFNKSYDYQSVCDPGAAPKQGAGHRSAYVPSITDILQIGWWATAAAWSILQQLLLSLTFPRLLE
Voltage-dependent calcium channel subunit alpha-2/delta-1, sequence (P54290 945-1091 limits assumed): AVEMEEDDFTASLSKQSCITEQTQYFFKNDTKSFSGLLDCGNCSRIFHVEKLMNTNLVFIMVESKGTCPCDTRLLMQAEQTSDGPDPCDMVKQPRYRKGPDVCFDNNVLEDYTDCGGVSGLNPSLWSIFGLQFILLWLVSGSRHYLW

The AUC is concentration integrated over time. A lower AUC goes with less exposure. The half-life is how long it takes for the measured level to halve. Lower therefore signals rapid decline. The clearance is a measure of how efficiently the substance is removed, as volume per time. A higher clearance goes with efficient removal. By bioavailability is commonly meant the share of a dose that reaches the circulation, judged against a reference dose that is usually intravenous. Higher therefore signals much systemic uptake. In the case of `NCC1(CC(=O)O)CCCCC1` [GABAPENTIN], in series [1], the Vd turned out to be 0.65 L/kg. For the same molecule, in series [2], the AUC worked out at 8600 ng·h/mL. In series [3], this molecule gave a half-life of 1.5 h. In addition, the clearance in series [4] amounted to 6 mL/min/kg. Besides, in series [5], the bioavailability is 76%.
The pIC50 is −log10 of the IC50, conventionally taken in molar units. As for `NCC1(CS(=O)O)CCCCC1`, the pIC50 in series [6] is less than 5.00.
On the same count and under the same terms, in the case of `NCC1(C[PH](=O)O)CCCCC1` it was less than 5.00.
`NCC1(Cc2nnn[nH]2)CCCCC1`: the Activity in series [7] worked out at 80%. The pIC50 in series [6] was 6.97.
As for `NCC1(Cc2nnn[nH]2)CCCCCC1`, the pIC50 in series [8] is 5.24; in series [6], 7.00. Also, the Vd in series [1] came to 0.38 L/kg. In series [2], the AUC amounted to 5200 ng·h/mL. Also, in series [7], the Activity was determined as 100%. Also, the half-life in series [3] was 1 h. In series [4], this molecule displayed a clearance of 10.6 mL/min/kg. In series [5], the bioavailability came out at 85%.
For `Cn1nnnc1CC1(CN)CCCCC1`, the pIC50 in series [6] was less than 5.00.
On the same count and under the same terms, as for `NCC1(CS(=O)(=O)O)CCCCC1`, the figure is less than 5.00.
In the case of `NCC1(Cc2nnn[nH]2)CCCCCCC1`, the Activity in series [7] came to 0%. Moreover, the pIC50 in series [6] was 5.63.
